# Data reported in patent US10787452B2 (Vertex Pharmaceuticals Incorporated, priority 2012, dated 2020).
# Tested on: HCT116 colorectal cancer cells
# Test: Cisplatin sensitization assay (96 h cell viability MTS);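 note: compound concentration needed to lower the Cisplatin-alone IC50 by a set fold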
# Format: cell-based
# Details: 96 h MTS, compound plus Cisplatin
# Procedure, shortened: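 Viability was measured by MTS after 96 h co-exposure of HCT116 colorectal cells to a full-matrix dilution grid of compound and cisplatin (2-fold steps, highest final concentration 10 μM, added together). Plates were kept at 37 °C in 5% CO2, and the MTS reagent was incubated for 1 h before reading.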
row,SMILES,Cisplatin Sensitization Assay
1,"CNC1CCN(c2ccncc2NC(=O)c2c(N)nn3cc(Cl)cnc23)CC1 [I-N-87, 2-amino-6-chloro-N-(4-(4-(methylamino)piperidin-1-yl)pyridin-3-yl)pyrazolo[1,5-a]pyrimidine-3-carboxamide]",++ (Compounds with a Cisplatin sensitization value >0.02 μM but <0.2 μM are marked with “++.”)
2,"Nc1nn2cc(Cl)cnc2c1C(=O)Nc1cnccc1N1CCNCC1 [I-N-88, 2-amino-6-chloro-N-(4-(piperazin-1-yl)pyridin-3-yl)pyrazolo[1,5-a]pyrimidine-3-carboxamide]",++ (Compounds with a Cisplatin sensitization value >0.02 μM but <0.2 μM are marked with “++.”)
3,"N#CCc1cnc2c(C(=O)Nc3cnccc3N3CCNCC3)c(N)nn2c1 [I-N-89, 2-amino-6-(cyanomethyl)-N-(4-(piperazin-1-yl)pyridin-3-yl)pyrazolo[1,5-a]pyrimidine-3-carboxamide]",++ (Compounds with a Cisplatin sensitization value >0.02 μM but <0.2 μM are marked with “++.”)
4,"N#CCc1cnc2c(C(=O)Nc3cnccc3N3CCOC(CN)C3)c(N)nn2c1 (stereo not shown) [I-N-90, 2-amino-N-(4-(2-(aminomethyl)morpholino)pyridin-3-yl)-6-(cyanomethyl)pyrazolo[1,5-a]pyrimidine-3-carboxamide]",+ (Compounds with a Cisplatin sensitization value >0.2 μM but <5 μM are marked with “+.”)
5,"NCC1CCN(c2ccncc2NC(=O)c2c(N)nn3cc(Cl)cnc23)CC1 [I-N-91, 2-amino-N-(4-(4-(aminomethyl)piperidin-1-yl)pyridin-3-yl)-6-chloropyrazolo[1,5-a]pyrimidine-3-carboxamide]",++ (Compounds with a Cisplatin sensitization value >0.02 μM but <0.2 μM are marked with “++.”)
6,"CN(C)C1CN(C2CCN(c3ccncc3NC(=O)c3c(N)nn4cc(Cl)cnc34)CC2)C1 [I-N-94, 2-amino-6-chloro-N-(4-(4-(3-(dimethylamino)azetidin-1-yl)piperidin-1-yl)pyridin-3-yl)pyrazolo[1,5-a]pyrimidine-3-carboxamide]",+++ (Compounds with a Cisplatin sensitization value of <0.02 μM are marked with “+++.”)
7,"COC1CCN(C2CCN(c3ccncc3NC(=O)c3c(N)nn4cc(Cl)cnc34)CC2)C1 (stereo not shown) [I-N-95, 2-amino-6-chloro-N-(4-(4-(3-methoxypyrrolidin-1-yl)piperidin-1-yl)pyridin-3-yl)pyrazolo[1,5-a]pyrimidine-3-carboxamide]",++ (Compounds with a Cisplatin sensitization value >0.02 μM but <0.2 μM are marked with “++.”)
8,"CN1CCN(C2CCN(c3ccncc3NC(=O)c3c(N)nn4cc(Cl)cnc34)CC2)CC1 [I-N-97, 2-amino-6-chloro-N-(4-(4-(4-methylpiperazin-1-yl)piperidin-1-yl)pyridin-3-yl)pyrazolo[1,5-a]pyrimidine-3-carboxamide]",+++ (Compounds with a Cisplatin sensitization value of <0.02 μM are marked with “+++.”)
9,"Nc1nn2cc(Cl)cnc2c1C(=O)Nc1cnccc1N1CCC(N2CC[C@@H](F)C2)CC1 [I-N-98, (R)-2-amino-6-chloro-N-(4-(4-(3-fluoropyrrolidin-1-yl)piperidin-1-yl)pyridin-3-yl)pyrazolo[1,5-a]pyrimidine-3-carboxamide]",+++ (Compounds with a Cisplatin sensitization value of <0.02 μM are marked with “+++.”)
10,"Nc1nn2cc(Cl)cnc2c1C(=O)Nc1cnccc1N1CCC(N2CCC3(COC3)C2)CC1 [I-N-99, N-(4-(4-(2-oxa-6-azaspiro[3.4]octan-6-yl)piperidin-1-yl)pyridin-3-yl)-2-amino-6-chloropyrazolo[1,5-a]pyrimidine-3-carboxamide]",+++ (Compounds with a Cisplatin sensitization value of <0.02 μM are marked with “+++.”)
